From paper PMC5444695, “CM363, a novel naphthoquinone derivative which acts as multikinase modulator and overcomes imatinib resistance in chronic myelogenous leukemia” (Oncotarget, 2016) come the findings set out here.

One test has as its system pTyr694-Stat5 (pYStat5). The test can be described thus: Immunoblotting of constitutive pYStat5 in K562 cells. It counts as cell-based. The conditions noted are these: Homo sapiens; K562, 0.05 μM IM, 3 h. The procedure:
Then, cells were rinsed with cold PBS-vanadate (1 mM) followed by preparation of whole lysis extract with RIPA (Pierce, Illinois, USA). Equal amounts of each sample were separated by SDS-PAGE and transfered onto nitrocellulose membranes. After being blocked with 1% BSA-1% Blotto (anti-phospho-antibodies) (Santa Cruz Biotechnology, CA, USA) or 5% blotto (anti-total-antibodies) (Santa Cruz Biotechnology, CA, USA) (both diluted in Tris buffered saline with 0.05% Tween 20), membranes were immunoblotted overnight at 4°C with dilution (1:1000) in the same buffer of blocking of primary phosphoprotein or total protein antibodies. […] To control for differences in loading and transfer efficiency across membranes, membranes were incubated with a monoclonal mouse anti-beta actin antibody (Santa Cruz Biotechnology, CA, USA). The phosphoprotein array analysis of K562 cells was carried out by using the Profiler Human Phospho-Kinase Array Kit ARY003B (R&D Systems, Minneapolis, MN, USA) according to the manufacturer`s instructions.

A further test deals with K562 cells. Kind of test: Live-cell imaging (IncuCyte HD) of proliferation and cytotoxicity, K562 cells. The class given is cell-based, human. The conditions noted are these: Homo sapiens, 96 h; IM sensitive K562, continuous exposure over 4-day period, area under curve; read-out: IC50AUC, cytostatic effect on cell growth. The method, then: Kinetic measurements of cell proliferation and cytotoxicity were carried out by using the IncuCyte^TM HD real time imaging system (Essen BioScience, Hertfordshire, United Kingdom). After seeding in a polylysine-coated 96 well-plates, K562 cells were treated with different concentrations of compound. This IncuCyte™ microscope permits the acquisition of automated phase contrast images. Individual images are processed by an imbedded contrast-based confluence algorithm, which compute monolayer confluence for each image and at each time point. Multiple images are collected per well and averaged to provide a representative statistical measure of confluence.

Where a name gives a salt, the structure may show the parent alone.

A word on the inhibition: it is the relative decrease from the control value, in per cent. Higher therefore signals a strong effect. As to `Cc1ccc(NC(=O)c2ccc(CN3CCN(C)CC3)cc2)cc1Nc1nccc(-c2cccnc2)n1` [IM, imatinib mesylate, reference compound], the inhibition at 0.05 µM in the test with pTyr694-Stat5 (pYStat5) is 40%. In addition, the IC50 with K562 cells is 200 ± 100 nM.
